Values quoted from earlier work in patent publication US20220347165A1, “EFFERVESCENT ORAL COMPOSITION” (NICOVENTURES TRADING LIMITED, priority 2021, published 2022).

What was measured:
[1] = when isolated; isomerizes to trans-bixin

solubility in fats and alcohols (fats and alcohols)	solubility in water	chemical stability [1]	SMILES
soluble in fats and alcohols	insoluble in water	chemically unstable when isolated	COC(=O)/C=C/C(C)=C\C=C\C(C)=C\C=C\C=C(C)\C=C\C=C(C)\C=C\C(=O)O [bixin, (2E,4E,6E,8E,10E,12E,14E,16Z,18E)-20-methoxy-4,8,13,17-tetramethyl-20-oxoicosa-2,4,6,8,10,12,14,16,18-nonaenoic acid]
–	water soluble	–	CC(/C=C/C=C(C)/C=C/C(=O)O)=C\C=C\C=C(C)\C=C\C=C(C)\C=C\C(=O)O (stereo in doubt) [norbixin, (2E,4E,6E,8E,10E,12E,14E,16E,18E)-4,8,13,17-tetramethylicosa-2,4,6,8,10,12,14,16,18-nonaenedioic acid]
